In patent US10308631B2, “Selective anti-cancer compounds” (NATIONAL UNIVERSITY OF SINGAPORE, priority 2015, dated 2019):

Tests used:
[1] = test system: mitotic marker phospho-histone H3 at serine 10 (pH3 (Ser10)) in transformed BJ cells; assay: Immunoblot analysis of mitotic marker pH3 (Ser10), derivatives of Compound 1; format: cell-based; settings: Homo sapiens, band intensities pH3(Ser10)/β-actin vs DMSO control, 24 h
In short: (§1)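 Transformed BJ cells exposed to compounds (1.25–10 μM range, 5 μM in screen) for 24 h; total lysates immunoblotted for LC3 and pH3(Ser10) with β-actin loading control. Readout: fold change vs DMSO of LC3-II/LC3-I and pH3/β-actin band intensities, graded against Compound 1 at 1.25 μM.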

[2] = test system: autophagosome marker LC3 (LC3 II/LC3 I) in transformed BJ cells; assay: Immunoblot analysis of autophagosome marker LC3 (lysosome function), derivatives of Compound 1; format: cell-based; settings: Homo sapiens, band intensities LC3 II/LC3 I vs DMSO control, 24 h
In short: as §1

[3] = test system: pH3 (Ser10) and LC3 in BJ transformed cells; assay: Immunoblot classification of compounds by pH3 and LC3 (FIG. 4); format: cell-based, human; settings: 5 μM, 24 h
In short: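 BJ transformed cells were exposed to compounds at 5 μM for 24 h. Total lysates were immunoblotted for the mitotic marker phospho-histone H3 (Ser10) and the autophagosome marker LC3, with β-actin as loading control.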

[4] = test system: oncogene-transformed BJ cells; assay: PI staining and FACS analysis, sub-G1 cell death; format: cell-based, human; settings: for cell death (population of cells in sub-G1) / cell death: 48 h; for cell death (population of cells in sub-G1): Compound 1 2.5 μM, other Group 1 and Group 2 compounds 10 μM, Compound 3 5 μM (FIG. 5A)
Experimental: FIG. 5A is a histogram showing the ability of Compound 1 (a131) and its derivatives Compound 2 (a156), Compound 16 (b5), Compound 17 (b9), all in Group 1; Compound 29 (a219), Compound 13 (b12), Compound 11 (b15), Compound 12 (b16), Compound 25 (a166), all in Group 2; and Compound 3 (a159) from Group 3, to induce cancer selective cell death. Isogenic non-transformed (normal) and oncogene-transformed BJ cells were treated with each compound for 48 h and cells were stained with propidium iodide (PI) and subjected to FACS analysis. The percentage of cells in sub-G1 phase is indicative of the extent of cell death. […] In contrast, the ability of the compounds in Groups 2 and 3 to induce cancer selective cell death was markedly compromised (or reduced).
The Compounds 25 (a166) and 3 (a159) were selected from Group 2 and Group 3, respectively. Isogenic non-transformed normal and oncogene-transformed BJ cells were treated with or without 0.3 μM or 0.6 μM Compound 3 (a159) alone or together with 1.25 μM Compound 25 (a166) for 48 h. Cells were stained with propidium iodide (PI) and subjected to FACS analysis.
Isogenic non-transformed and oncogene-transformed human fibroblast BJ cell lines were cultured in DMEM supplemented with 10% FBS. The cells were treated with Compound 1 (2.5 μM, DMSO). 48 h after treatment, the cells were fixed with ethanol at −30° C. overnight and stained with 20 μg/mL propidium iodide (PI) and 10 μg/mL RNase A for 30 min. These cells were then subjected to flow cytometry (FACS) analysis using MACSQuant (Miltenyi Biotec) to count the percentage of apoptotic cells in sub-G1 peak.
The above procedure was repeated for Group 1 Compounds 2, 16 and 17, Group 2 Compounds 29, 13, 11, 12 and 25 at a concentration of 10 μM, and Group 3 Compound 3 at a concentration of 5 μM.
Isogenic non-transformed normal and oncogene-transformed BJ cells were cultured as in Biology Example 3. The cells were treated with a combination of Compound 3 (Group 3, at a concentration of 0.3 μM or 0.6 μM), and Compound 25 (Group 2, at a concentration of 1.25 μM) for 48 hours. Controls using DMSO, Compound 3 and Compound 25 alone (at the concentrations mentioned above) were also performed.

Structure (SMILES)	fold induction at 5 µM [1]	fold induction at 5 µM [2]	Inhibition of lysosome function and/or mitosis (FIG. 4) [3]	population of cells in sub-G1 ([4]; 2.5 and 5 μM, 24 h (FIG. 9A panels g-i))	cell death (population of cells in sub-G1) [4]	cell death ([4]; Compound 3 alone at 0.3 μM)	cell death ([4]; Compound 3 alone at 0.6 μM) [%]
N#C/C(=C\c1cccc2cnccc12)c1c[nH]c2ccccc12 [Compound 1, (Z)-2-(1H-indol-3-yl)-3-(isoquinolin-5-yl)acrylonitrile]	7.3	5	exhibit the dual properties of inhibiting both lysosome function and mitosis	massive increase in population of oncogene-transformed BJ cells in sub-G1	selectively induced cell death in oncogene-transformed BJ cells while sparing normal counterparts	–	–
N#C/C(=C\c1cccc2ncccc12)c1c[nH]c2ccccc12 [Compound 3, (Z)-2-(1H-indol-3-yl)-3-(quinolin-5-yl)acrylonitrile]	10.5	0.7	inhibit mitosis only	–	significantly induced cell death	negligible effect	−15
CN1CCN(CC(=O)n2cc(/C(C#N)=C/c3cccc4cnccc34)c3ccccc32)CC1 [Compound 16, (Z)-3-(isoquinolin-5-yl)-2-(1-(2-(4-methylpiperazin-1-yl)acetyl)-1H-indol-3-yl)acrylonitrile]	11.8	5	exhibit the dual properties of inhibiting both lysosome function and mitosis	–	selectively induced cell death in oncogene-transformed BJ cells while sparing normal counterparts	–	–
